This is an account of results in US20220110953A1, “METHODS AND COMPOSITIONS FOR TREATING HUMAN PAPILLOMAVIRUS (HPV)-INDUCED CANCERS” (The Board of Regents of the University of Oklahoma, priority 2020, published 2022).

The test system of series [1] is HeLa (HPV 18+) cells. Briefly: Effect of IMD 0354 on growth of HeLa cells (cell count after 48h). The series is classed as cell-based, human. The protocol: (§1) To examine the effect of IMD 0354 on the growth of HaCat (HPV^−), HeLa (HPV 18^+), CasKi and SiHa (both HPV 16^+), the cells were plated out and allowed to adhere overnight. Next day their culture medium was replaced and different concentrations of IMD 0354 (final concentrations 250, 500, 750, 1000, 1250 nM, using DMSO to equalize input volumes and as negative control) were added to the plates. Cells were counted 48h later.
(§2) IKKβ is a serine/threonine kinase that is highly conserved between flies and humans. It regulates the innate immune pathway by activating NF-κB, which in turn activates the expression of antimicrobial peptides to fight against pathogens. To determine whether IKKβ also has a functional link to E6+UBE3A in human cells, we assessed the effect of the commercial IKKβ inhibitor IMD 0354 on the growth of HaCat (HPV^−), HeLa (HPV 18^+), CasKi (HPV 16^+), and SiHa (HPV 16^+) cells. Different concentrations of the inhibitor were tested ranging from 250, 500, 750, 1000, to 1250 nM.

For series [2], the system named is HaCat (HPV−) cells. Put plainly: Effect of IMD 0354 on growth of HaCat cells (cell count after 48h). The series is classed as cell-based, human. The settings on record: 250-1250 nM. The protocol: as §1, §2
The test system of series [3] is SiHa (HPV 16+) cells. Put plainly: Effect of IMD 0354 on growth of SiHa cells (cell count after 48h). The series is classed as cell-based, human. The note with it: 250-1250 nM. The procedure:
as §1, §2

Series [4] concerns HPV 18 E6. Briefly: Western blot for phosphorylated E6 in HeLa cells treated with IKKβ inhibitor. Format: cell-based, human. The procedure: HPV-18-positive HeLa cells were seeded on 6 cm dishes and allowed to attach overnight. Fresh medium was then added, containing either 0, 100 nM or 500 nM […] inhibitor (in DMSO). After 5 hours the cells were harvested in 2×SDS-PAGE gel loading buffer, run on SDS-PAGE, and analyzed by Western Blot. The membrane was probed with antibody specific for phosphorylated E6, as described previously (Boon and Banks 2012, DOI: 10.1128/JVI.02074-12). Following incubation with primary antibody, the appropriate horseradish peroxidase (HRP)-conjugated secondary antibodies (Dako) were used, followed by enhanced chemiluminescence (ECL) detection according to the manufacturer's instructions.
To assess whether phosphorylation-mediated regulation of E6 plays a role in suppression of Magi degradation, we treated cells expressing HPV 18 E6 with the IKKβ inhibitor […] (at 100 and 500 nM) and compared with untreated cells for E6 phosphorylation. Western blot analysis was performed using an antibody to detect phosphorylated E6.
For orientation: Immunoblotting shows a protein as a band on a membrane.

Series [5] relates to HPV 16+ and HPV 18+ human cervical cancer cell lines. Put plainly: Auranofin cell growth in human cervical cancer cell lines. Format: cell-based. The note with it: FIG. 6.
Series [6] deals with SiHa cervical cancer xenografts (HPV 16+). Briefly: SiHa tumor xenograft model. The series is classed as in vivo, mice. The note with it: 10 mg/kg/day i.p., vs placebo. The protocol:
(§3) The animal study was conducted in accordance with a standard animal protocol approved by the University of Oklahoma Health Sciences Center Institutional Animal Care and Use Committee (IACUC Protocol #19-009-CHI). […] Auranofin (10 mg/kg/day) or placebo (2% DMSO, 10% ethanol and 5% polyethylene glycol 400) were given daily for 16 days, through intraperitoneal injection. Mice were weighed once per week and animal health was monitored daily. At the end of the study, all mice were euthanized by CO2 inhalation followed by cardiac puncture and total blood collection. Tumors were collected at necropsy and a portion of each tumor from each animal was fixed in paraformaldehyde and embedded in paraffin, while another portion was snap-frozen in liquid nitrogen.
(§4) The tumor volume and body weight data were determined to be not normally distributed, and the final tumor weight data was determined to be normally distributed using the Shapiro-Wilk test. Tumor volume and body weight were compared between treatment groups using the Wilcoxon matched-pairs signed rank test. A two-way ANOVA with multiple comparisons was used to evaluate the interaction between time and treatment. An unpaired t-test was used to compare the final tumor weights between the two treatment groups. The p values <0.05 were considered statistically significant. Statistical analysis was performed using Prism 8.0 (GraphPad).

Series [7] is described as follows: Body weight and gross toxicity in the SiHa xenograft study. The note with it: 10 mg/kg/day i.p., 16 days. The series is classed as in vivo, mice. The protocol: as §3, §4

Turning to `O=C(Nc1cc(C(F)(F)F)cc(C(F)(F)F)c1)c1cc(Cl)ccc1O` [IMD 0354], the “number of surviving cells relative to the initial number of cells” value in series [1] (250 nM) stood at 40%; in series [1] (1250 nM), 10%. For the same compound, the figures for the “effect on cell growth” value in series [1] (250-1250 nM), in series [2] and in series [3] were “most strongly affected”, “minor effect” and “significant”, respectively. In addition, the “E6 phosphorylation (Western blot)” value in series [4] (HeLa cell extracts, 100 nM, 5 hours) was “lack of E6 phosphorylation”; in series [4] (HeLa cell extracts, 500 nM, 5 hours) it was “results in phosphorylation of E6”; in series [4] (cells expressing HPV 18 E6, at 100 and 500 nM, compared with untreated cells), “extensive phosphorylation of E6”.
As for `CC(=O)OC[C@H]1O[C@@H]([S-])[C@H](OC(C)=O)[C@@H](OC(C)=O)[C@@H]1OC(C)=O.CCP(CC)CC.[Au+]` [Auranofin], the “activity against cervical cancer cell lines (cell growth)” value in series [5] was “active”. The “tumor growth (tumor volume over time)” value in series [6] (16 days, Wilcoxon p=0.0011) is “significant reduction in tumor growth”. In addition, the “tumor volume after 16 days of treatment” value in series [6] (two-way ANOVA multiple comparisons p=0.0016) is “significant reduction in tumor volume”. Also, the “gross toxicity to the animals” value in series [7] is “did not cause gross toxicity”. In addition, the body weights result in series [7] (vs placebo, any time point, p>0.05) is “no significant differences”.
